# Assay results: patent US20230085307A1, “PYRIDAZINONE COMPOUND AND HERBICIDE” (NISSAN CHEMICAL CORPORATION, priority 2019, published 2023)
# Key:
# soybean [1] = test: Test Example 4: effect on crop by soil treatment (Table 19, symbol d); assay type: in vivo; conditions: 320 g/ha
# From the text: (§1) [Test Example 4] Herbicidal Effect Test by Soil Treatment
# (§2) Sterilized diluvial soil was placed in a plastic box having a length of 21 cm, a width of 13 cm, and a depth of 7 cm. The seeds of each of southern crabgrass, green foxtail, barnyard grass, wild oat, blackgrass, Italian ryegrass, windgrass, velvetleaf, redroot pigweed, lambsquarters, chickweed, false cleavers, persian speedwell, corn, soybean, rice, wheat, beet, and rapeseed were sowed in a spot-like manner and covered with the soil having a thickness of about 1.5 cm. Subsequently, the emulsion agent of the compound of the present invention prepared according to Formulation Example 2 was diluted with water so as to achieve a predetermined herbicide amount, and the diluted emulsion agent was uniformly applied to the surface of the soil with a small-sized spray. The plastic box was placed in a greenhouse at 25° C. to 30° C. for growth of the plants. Three weeks after the herbicide application, the effect of the herbicide on each plant was evaluated according to the criteria of Test Example 1.
# Italian ryegrass [2] = test: Test Example 4: herbicidal effect by soil treatment (Table 19, symbol K); assay type: in vivo, Italian ryegrass (Lolium multiflorum); conditions: 320 g/ha
# How it was run: (§3)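 Herbicidal effect was rated 3 weeks after treatment, using the scoring criteria of an earlier test. The compound, formulated as an emulsion and diluted in water to a set herbicide amount, had been sprayed uniformly on soil over freshly sown seeds. Growth took place in a greenhouse at 25° C. to 30° C.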
# barnyard grass [3] = test: Test Example 3: herbicidal effect by foliage application, Wagner pot (Table 18, symbol H); assay type: in vivo, barnyard grass (Echinochloa crus-galli); conditions: 320 g/ha
# How it was run: (§4)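 Plants were sown in alluvial soil held under 0.1–0.5 cm standing water and grown 14 days in a greenhouse at 25–30 °C. An emulsifiable formulation, water-diluted to the set dose, was then sprayed onto the foliage, and effects were scored three weeks later using previously defined criteria.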
# windgrass [4] = test: Test Example 5: herbicidal effect by foliage application, plastic box (Table 20, symbol L); assay type: in vivo, windgrass (Apera spica-venti); conditions: foliage application, 320 g/ha, 3 weeks after application
# How it was run: (§5)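 Foliar spray test: emulsion formulation diluted in water to a set application rate, sprayed onto 14-day-old plants raised in diluvial soil at 25° C to 30° C under glass. Both herbicidal effect and crop effect rated visually three weeks later.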
# lambsquarters [5] = test: Test Example 4: herbicidal effect by soil treatment (Table 19, symbol O); assay type: in vivo, lambsquarters (Chenopodium album); conditions: 320 g/ha
# How it was run: as §3
# rapeseed [6] = test: Test Example 5: effect on crop by foliage application, plastic box (Table 20, symbol g); assay type: in vivo; conditions: 320 g/ha, 3 weeks after application
# From the text: (§6) [Test Example 5] Herbicidal Effect Test by Foliage Application
# as §2, with “Thereafter, the plants were grown in a greenhouse at 25° C. to 30° C. After 14-day growth of the plants,” for “Subsequently,”, “a foliage part” for “the surface of the soil”, “spray.” for “spray. The plastic box was placed in a greenhouse at 25° C. to 30° C. for growth of the plants.”
# wheat [7] = test: Test Example 4: effect on crop by soil treatment (Table 19, symbol e); assay type: in vivo; conditions: 320 g/ha
# How it was run: as §3
# velvetleaf [8] = test: Test Example 4: herbicidal effect by soil treatment (Table 19, symbol M); assay type: in vivo, velvetleaf (Abutilon theophrasti); conditions: 320 g/ha
# How it was run: as §3
# southern crabgrass [9] = test: Test Example 5: herbicidal effect by foliage application, plastic box (Table 20, symbol F); assay type: in vivo, southern crabgrass (Digitaria ciliaris); conditions: foliage application, 320 g/ha, 3 weeks after application
# How it was run: as §5
# southern crabgrass [10] = test: Test Example 4: herbicidal effect by soil treatment (Table 19, symbol F); assay type: in vivo, southern crabgrass (Digitaria ciliaris); conditions: 320 g/ha
# How it was run: as §3
# directly sowed rice = test: Test Example 3: effect on crop by foliage application, Wagner pot (Table 18, symbol b); assay type: in vivo; conditions: 320 g/ha
# How it was run: as §4
# velvetleaf [11] = test: Test Example 5: herbicidal effect by foliage application, plastic box (Table 20, symbol M); assay type: in vivo, velvetleaf (Abutilon theophrasti); conditions: foliage application, 320 g/ha, 3 weeks after application
# How it was run: as §5
# chickweed = test: Test Example 4: herbicidal effect by soil treatment (Table 19, symbol P); assay type: in vivo, common chickweed (Stellaria media); conditions: 320 g/ha
# How it was run: as §3
# persian speedwell [12] = test: Test Example 5: herbicidal effect by foliage application, plastic box (Table 20, symbol R); assay type: in vivo, Persian speedwell (Veronica persica); conditions: foliage application, 320 g/ha, 3 weeks after application
# How it was run: as §5
# green foxtail [13] = test: Test Example 5: herbicidal effect by foliage application, plastic box (Table 20, symbol G); assay type: in vivo, green foxtail (Setaria viridis); conditions: foliage application, 320 g/ha, 3 weeks after application
# How it was run: as §5
# green foxtail [14] = test: Test Example 4: herbicidal effect by soil treatment (Table 19, symbol G); assay type: in vivo, green foxtail (Setaria viridis); conditions: 320 g/ha
# How it was run: as §3
# wheat [15] = test: Test Example 5: effect on crop by foliage application, plastic box (Table 20, symbol e); assay type: in vivo; conditions: 320 g/ha, 3 weeks after application
# From the text: as §6
# as §2, with “Thereafter, the plants were grown in a greenhouse at 25° C. to 30° C. After 14-day growth of the plants,” for “Subsequently,”, “a foliage part” for “the surface of the soil”, “spray.” for “spray. The plastic box was placed in a greenhouse at 25° C. to 30° C. for growth of the plants.”
# wild oat [16] = test: Test Example 5: herbicidal effect by foliage application, plastic box (Table 20, symbol I); assay type: in vivo, wild oat (Avena fatua); conditions: foliage application, 320 g/ha, 3 weeks after application
# How it was run: as §5
# beet [17] = test: Test Example 5: effect on crop by foliage application, plastic box (Table 20, symbol f); assay type: in vivo; conditions: 320 g/ha, 3 weeks after application
# From the text: as §6
# as §2, with “Thereafter, the plants were grown in a greenhouse at 25° C. to 30° C. After 14-day growth of the plants,” for “Subsequently,”, “a foliage part” for “the surface of the soil”, “spray.” for “spray. The plastic box was placed in a greenhouse at 25° C. to 30° C. for growth of the plants.”
# corn [18] = test: Test Example 4: effect on crop by soil treatment (Table 19, symbol c); assay type: in vivo; conditions: 320 g/ha
# How it was run: as §3
# rice flat sedge = test: Test Example 3: herbicidal effect by foliage application, Wagner pot (Table 18, symbol E); assay type: in vivo, rice flat sedge (Cyperus iria); conditions: 320 g/ha
# How it was run: as §4
# beet [19] = test: Test Example 4: effect on crop by soil treatment (Table 19, symbol f); assay type: in vivo; conditions: 320 g/ha
# How it was run: as §3
# Chinese sprangletop = test: Test Example 3: herbicidal effect by foliage application, Wagner pot (Table 18, symbol D); assay type: in vivo, chinese sprangletop (Leptochloa chinensis); conditions: 320 g/ha
# How it was run: as §4
# windgrass [20] = test: Test Example 4: herbicidal effect by soil treatment (Table 19, symbol L); assay type: in vivo, windgrass (Apera spica-venti); conditions: 320 g/ha
# How it was run: as §3
# redroot pigweed = test: Test Example 4: herbicidal effect by soil treatment (Table 19, symbol N); assay type: in vivo, redroot pigweed (Amaranthus retroflexus); conditions: 320 g/ha
# How it was run: as §3
# corn [21] = test: Test Example 5: effect on crop by foliage application, plastic box (Table 20, symbol c); assay type: in vivo; conditions: 320 g/ha, 3 weeks after application
# From the text: as §6
# as §2, with “Thereafter, the plants were grown in a greenhouse at 25° C. to 30° C. After 14-day growth of the plants,” for “Subsequently,”, “a foliage part” for “the surface of the soil”, “spray.” for “spray. The plastic box was placed in a greenhouse at 25° C. to 30° C. for growth of the plants.”
# barnyard grass [22] = test: Test Example 5: herbicidal effect by foliage application, plastic box (Table 20, symbol H); assay type: in vivo, barnyard grass (Echinochloa crus-galli); conditions: foliage application, 320 g/ha, 3 weeks after application
# How it was run: as §5
# rapeseed [23] = test: Test Example 4: effect on crop by soil treatment (Table 19, symbol g); assay type: in vivo; conditions: 320 g/ha
# From the text: as §1, §2
# barnyard grass [24] = test: Test Example 4: herbicidal effect by soil treatment (Table 19, symbol H); assay type: in vivo, barnyard grass (Echinochloa crus-galli); conditions: 320 g/ha
# How it was run: as §3
# blackgrass [25] = test: Test Example 4: herbicidal effect by soil treatment (Table 19, symbol J); assay type: in vivo, blackgrass (Alopecurus myosuroides); conditions: 320 g/ha
# How it was run: as §3
# soybean [26] = test: Test Example 5: effect on crop by foliage application, plastic box (Table 20, symbol d); assay type: in vivo; conditions: 320 g/ha, 3 weeks after application
# From the text: as §6
# as §2, with “Thereafter, the plants were grown in a greenhouse at 25° C. to 30° C. After 14-day growth of the plants,” for “Subsequently,”, “a foliage part” for “the surface of the soil”, “spray.” for “spray. The plastic box was placed in a greenhouse at 25° C. to 30° C. for growth of the plants.”
# blackgrass [27] = test: Test Example 5: herbicidal effect by foliage application, plastic box (Table 20, symbol J); assay type: in vivo, blackgrass (Alopecurus myosuroides); conditions: foliage application, 320 g/ha, 3 weeks after application
# How it was run: as §5
# persian speedwell [28] = test: Test Example 4: herbicidal effect by soil treatment (Table 19, symbol R); assay type: in vivo, Persian speedwell (Veronica persica); conditions: 320 g/ha
# How it was run: as §3
# lambsquarters [29] = test: Test Example 5: herbicidal effect by foliage application, plastic box (Table 20, symbol O); assay type: in vivo, lambsquarters (Chenopodium album); conditions: foliage application, 320 g/ha, 3 weeks after application
# How it was run: as §5
# wild oat [30] = test: Test Example 4: herbicidal effect by soil treatment (Table 19, symbol I); assay type: in vivo, wild oat (Avena fatua); conditions: 320 g/ha
# How it was run: as §3
# Italian ryegrass [31] = test: Test Example 5: herbicidal effect by foliage application, plastic box (Table 20, symbol K); assay type: in vivo, Italian ryegrass (Lolium multiflorum); conditions: foliage application, 320 g/ha, 3 weeks after application
# How it was run: as §5
smiles,measurement,setting,value
"Cc1nn(C)c(=O)c(-c2c(-c3ccc(OC(F)F)cc3)sc3ccc(F)cc23)c1O [Compound No. 2-042, 4-(2-(4-(difluoromethoxy)phenyl)-5-fluorobenzo[b]thiophen-3-yl)-5-hydroxy-2,6-dimethylpyridazin-3(2H)-one]","effect rating on crop, d: soybean",soybean [1],0 (Herbicidal rate of 5% or less (almost no effect))
same,"herbicidal effect rating, K: Italian ryegrass",Italian ryegrass [2],5 (Herbicidal rate of 90% or more (almost completely withered))
same,"herbicidal effect on H (barnyard grass), rating 0-5",barnyard grass [3],5 (Herbicidal rate of 90% or more (almost completely withered))
same,effect on windgrass (L),windgrass [4],5 (Herbicidal rate of 90% or more (almost completely withered))
same,melting point,,164 to 165 °C
same,"herbicidal effect rating, O: lambsquarters",lambsquarters [5],5 (Herbicidal rate of 90% or more (almost completely withered))
same,effect on rapeseed (g),rapeseed [6],5 (Herbicidal rate of 90% or more (almost completely withered))
same,"effect rating on crop, e: wheat",wheat [7],0 (Herbicidal rate of 5% or less (almost no effect))
same,"herbicidal effect rating, M: velvetleaf",velvetleaf [8],5 (Herbicidal rate of 90% or more (almost completely withered))
same,effect on southern crabgrass (F),southern crabgrass [9],4 (Herbicidal rate of 70% or more and less than 90%)
same,"herbicidal effect rating, F: southern crabgrass",southern crabgrass [10],3 (Herbicidal rate of 40% or more and less than 70%)
same,"effect on crop b (directly sowed rice), rating 0-5",directly sowed rice,1 (Herbicidal rate of 5% or more and less than 20%)
same,effect on velvetleaf (M),velvetleaf [11],5 (Herbicidal rate of 90% or more (almost completely withered))
same,"herbicidal effect rating, P: chickweed",chickweed,4 (Herbicidal rate of 70% or more and less than 90%)
same,effect on persian speedwell (R),persian speedwell [12],5 (Herbicidal rate of 90% or more (almost completely withered))
same,effect on green foxtail (G),green foxtail [13],5 (Herbicidal rate of 90% or more (almost completely withered))
same,"herbicidal effect rating, G: green foxtail",green foxtail [14],5 (Herbicidal rate of 90% or more (almost completely withered))
same,effect on wheat (e),wheat [15],1 (Herbicidal rate of 5% or more and less than 20%)
same,effect on wild oat (I),wild oat [16],3 (Herbicidal rate of 40% or more and less than 70%)
same,effect on beet (f),beet [17],5 (Herbicidal rate of 90% or more (almost completely withered))
same,"effect rating on crop, c: corn",corn [18],0 (Herbicidal rate of 5% or less (almost no effect))
same,"herbicidal effect on E (rice flat sedge), rating 0-5",rice flat sedge,5 (Herbicidal rate of 90% or more (almost completely withered))
same,"effect rating on crop, f: beet",beet [19],1 (Herbicidal rate of 5% or more and less than 20%)
same,"herbicidal effect on D (Chinese sprangletop), rating 0-5",Chinese sprangletop,3 (Herbicidal rate of 40% or more and less than 70%)
same,"herbicidal effect rating, L: windgrass",windgrass [20],3 (Herbicidal rate of 40% or more and less than 70%)
same,"herbicidal effect rating, N: redroot pigweed",redroot pigweed,5 (Herbicidal rate of 90% or more (almost completely withered))
same,effect on corn (c),corn [21],0 (Herbicidal rate of 5% or less (almost no effect))
same,effect on barnyard grass (H),barnyard grass [22],5 (Herbicidal rate of 90% or more (almost completely withered))
same,"effect rating on crop, g: rapeseed",rapeseed [23],5 (Herbicidal rate of 90% or more (almost completely withered))
same,"herbicidal effect rating, H: barnyard grass",barnyard grass [24],4 (Herbicidal rate of 70% or more and less than 90%)
same,"herbicidal effect rating, J: blackgrass",blackgrass [25],3 (Herbicidal rate of 40% or more and less than 70%)
same,effect on soybean (d),soybean [26],3 (Herbicidal rate of 40% or more and less than 70%)
same,effect on blackgrass (J),blackgrass [27],5 (Herbicidal rate of 90% or more (almost completely withered))
same,"herbicidal effect rating, R: persian speedwell",persian speedwell [28],5 (Herbicidal rate of 90% or more (almost completely withered))
same,effect on lambsquarters (O),lambsquarters [29],5 (Herbicidal rate of 90% or more (almost completely withered))
same,"herbicidal effect rating, I: wild oat",wild oat [30],0 (Herbicidal rate of 5% or less (almost no effect))
same,effect on Italian ryegrass (K),Italian ryegrass [31],5 (Herbicidal rate of 90% or more (almost completely withered))
